For 21 compounds, Ki results are on record in US7250442B2, “Dihydroindol-2-one derivatives as steroid hormone nuclear receptor modulators” (Eli Lilly and Company, priority 2003, dated 2007).

The target of this assay is T1, human MR (Homo sapiens, UniProt P08235).
T1 construct: The full length human MR gene is cloned from a human kidney or human brain cDNA library; made in house; host or cells: Sf9 insect cells (baculovirus, pAcHLT transfer vector)
T1 sequence (P08235 1-984): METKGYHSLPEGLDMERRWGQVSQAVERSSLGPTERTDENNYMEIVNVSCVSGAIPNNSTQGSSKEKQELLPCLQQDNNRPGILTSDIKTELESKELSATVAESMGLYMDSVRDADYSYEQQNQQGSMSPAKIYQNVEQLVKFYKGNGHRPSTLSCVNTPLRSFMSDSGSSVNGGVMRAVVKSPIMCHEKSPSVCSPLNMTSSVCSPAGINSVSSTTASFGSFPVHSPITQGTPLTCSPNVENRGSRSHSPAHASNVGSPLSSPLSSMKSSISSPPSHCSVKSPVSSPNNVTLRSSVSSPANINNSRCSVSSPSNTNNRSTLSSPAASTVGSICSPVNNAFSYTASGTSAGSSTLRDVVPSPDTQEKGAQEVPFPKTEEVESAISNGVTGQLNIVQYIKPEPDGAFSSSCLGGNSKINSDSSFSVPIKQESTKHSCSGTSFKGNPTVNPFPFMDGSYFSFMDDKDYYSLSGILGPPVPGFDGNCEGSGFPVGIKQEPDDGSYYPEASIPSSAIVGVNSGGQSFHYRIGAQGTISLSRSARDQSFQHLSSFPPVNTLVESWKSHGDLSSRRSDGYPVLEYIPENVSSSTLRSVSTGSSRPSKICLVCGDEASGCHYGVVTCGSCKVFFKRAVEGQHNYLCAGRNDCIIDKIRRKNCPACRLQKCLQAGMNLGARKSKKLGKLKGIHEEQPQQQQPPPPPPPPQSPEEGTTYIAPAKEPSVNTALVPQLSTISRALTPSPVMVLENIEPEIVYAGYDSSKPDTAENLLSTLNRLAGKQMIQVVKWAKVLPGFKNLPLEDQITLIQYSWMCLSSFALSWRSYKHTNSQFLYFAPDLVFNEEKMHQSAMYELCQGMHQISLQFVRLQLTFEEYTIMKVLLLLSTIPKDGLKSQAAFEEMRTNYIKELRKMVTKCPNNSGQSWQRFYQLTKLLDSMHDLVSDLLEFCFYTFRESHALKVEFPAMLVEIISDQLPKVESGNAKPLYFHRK
As to the kind of experiment: Mineralocorticoid Receptor Binding Assay ([3H]-aldosterone displacement). Conditions: full length human MR expressed in Sf9 cells, 0.5 nM [3H]-aldosterone. The protocol: Mineralocorticoid Receptor Binding Assay:
The full length human MR gene is cloned from a human kidney or human brain cDNA library. Briefly, using synthetic oligonucleotide primers (Eli Lilly and Company, Indianapolis) directed to nucleotides 20-54 and 3700-3666 of the human MR, polymerase chain reaction (PCR) is performed under standard conditions using a human cDNA library. The PCR reaction is performed in a final volume of 50 μl containing about 1 μl of a 50× stock solution of polymerase; about 1 μl of a 50× stock solution of dNTP; about 5 μl of an appropriate PCR buffer; about 1 μl of each primer; about 5 μl of a H. kidney or H. brain cDNA library; and about 36 μl of water. The reaction is allowed to denature for about 30 seconds at 95 degrees Celsius, anneal for about 30 seconds at 55 degrees Celsius, and extend for about 5 minutes at 72 degrees Celsius, the sequence being repeated for a total of about 35 cycles. The desired PCR product (3.68 Kb) is confirmed by gel electrophoresis and subsequently cut from the gel and stored at about −20 degrees Celsius until extraction. To extract the cDNA product from the agarose gel, the QIAEX II Gel Extraction protocol (QIAGEN, Inc.) is employed according to the manufacturer's instructions. Following extraction, the MR cDNA is cloned into an appropriate cloning vector (Zero Blunt TOPO PCR Cloning Kit (Invitrogen, Inc.) and a pAcHLT-baculovirus transfer vector (B.D./Pharminogen), then expressed in SF9 insect cells, essentially according to manufacturer's instructions. Sf9 cells are grown at a scale where gram quantity cell pellets are obtained for subsequent use in the MR binding assay. Harvested cell pellets are lysed by repeated freeze-thaw cycles (about 4) in a suitable lysis buffer then centrifuged at about 1×10^3 G (with the supernatant being saved for future assays).
MR binding assays are performed in a final total volume of about 250 μl containing about 20-25 μg of protein and 0.5 nM of [^3H]-aldosterone plus varying concentrations of test compound or vehicle. The assay binding buffer consists of 30 mM sodium molybdate, 30 mM of TRIS-HCl, 5 mM sodium phosphate, 5 mM sodium pyrophosphate, and about 10% glycerol, pH=7.5.
Briefly, assays are prepared at RT in 96-well Falcon 3072 plates, each well containing 210 μl of binding buffer, 10 μl of [^3H]-aldosterone, 10 μl of test compound/vehicle, and 20 μl of the resuspended receptor protein extract. Incubations are carried out at 4 degrees Celsius with shaking for about 16 hours. 200 μl aliquots of each incubation are filtered onto Millipore HA 0.45 micron 96-well filter plates, pre-moistened with cold 30 mM TRIS-HCl. The filter plates are suctioned dry with vacuum and immediately washed 3× with cold 30 mM TRIS-HCl. The plates are then punched out and the amount of receptor-ligand complex is determined by liquid scintillation counting using 4 ml of Ready Protein Plus™ liquid scintillation cocktail.
IC50 values (defined as the concentration of test compound required to decrease [^3H]-aldosterone binding by 50%) are then determined. Ki values for each respective test compound can then be calculated by application of the Cheng-Prusoff equation as described in Cheng et al., Relationship Between The Inhibition Constant (Ki) and The Concentration of Inhibitor Which Causes 50% Inhibition (IC50) of an Enzymatic Reaction, Biochem. Pharmacol., 22: 3099-31088; (1973).

As to `Cc1cc(C2(c3cc(C)c(O)c(C)c3)C(=O)N(Cc3ccc(F)cc3F)c3ccccc32)cc(C)c1O` [Example 43, 1-(2,4-Difluoro-benzyl)-3,3-bis-(4-hydroxy-3,5-dimethyl-phenyl)-1,3-dihydro-indol-2-one], the Ki (as a rule, the dissociation constant of the complex between target and ligand, obtained from inhibition or displacement) was not above 500 nM.

Turning to `Cc1cc(C2(c3cc(C)c(O)c(C)c3)C(=O)N(Cc3ccccc3F)c3ccccc32)cc(C)c1O` [Example 50, 1-(2-Fluoro-benzyl)-3,3-bis-(4-hydroxy-3,5-dimethyl-phenyl)-1,3-dihydro-indol-2-one], the Ki was not above 500 nM.

The compound `Cc1cc(C2(c3cc(C)c(O)c(C)c3)C(=O)N(Cc3ccccc3C(F)(F)F)c3ccccc32)cc(C)c1O` [Example 53, 3,3-Bis-(4-hydroxy-3,5-dimethyl-phenyl)-1-(2-trifluoromethyl-benzyl)-1,3-dihydro-indol-2-one] gave a Ki not above 500 nM.

With `Cc1cc(C2(c3cc(C)c(O)c(C)c3)C(=O)N(Cc3ccccc3-c3ccccc3)c3ccccc32)cc(C)c1O` [Example 54, 1-Biphenyl-2-ylmethyl-3,3-bis-(4-hydroxy-3,5-dimethyl-phenyl)-1,3-dihydro-indol-2-one], the inhibitory constant (Ki) was not above 500 nM.

In turn, `COc1cccc(CN2C(=O)C(c3cc(C)c(O)c(C)c3)(c3cc(C)c(O)c(C)c3)c3ccccc32)c1` [Example 56, 3,3-Bis-(4-hydroxy-3,5-dimethyl-phenyl)-1-(3-methoxy-benzyl)-1,3-dihydro-indol-2-one] came in with a Ki not above 500 nM.

Regarding `Cc1cc(C2(c3cc(C)c(O)c(C)c3)C(=O)N(Cc3ccc(Br)cc3)c3ccccc32)cc(C)c1O` [Example 58, 1-(4-Bromo-benzyl)-3,3-bis-(4-hydroxy-3,5-dimethyl-phenyl)-1,3-dihydro-indol-2-one], the Ki was not above 500 nM.

`Cc1cc(C2(c3cc(C)c(O)c(C)c3)C(=O)N(Cc3ccc([N+](=O)[O-])cc3)c3ccccc32)cc(C)c1O` [Example 62, 3,3-Bis-(4-hydroxy-3,5-dimethyl-phenyl)-1-(4-nitro-benzyl)-1,3-dihydro-indol-2-one] gave a Ki not above 500 nM.

Compound `Cc1cc(C2(c3cc(C)c(O)c(C)c3)C(=O)N(Cc3ccccc3Br)c3ccccc32)cc(C)c1O` [Example 63, 1-(2-Bromo-benzyl)-3,3-bis-(4-hydroxy-3,5-dimethyl-phenyl)-1,3-dihydro-indol-2-one] gave a Ki not above 500 nM.

`Cc1cc(C2(c3cc(C)c(O)c(C)c3)C(=O)N(Cc3cccc(Br)c3)c3ccccc32)cc(C)c1O` [Example 64, 1-(3-Bromo-benzyl)-3,3-bis-(4-hydroxy-3,5-dimethyl-phenyl)-1,3-dihydro-indol-2-one] showed a Ki not above 500 nM.

On to `Cc1cc(C2(c3cc(C)c(O)c(C)c3)C(=O)N(Cc3ccccc3[N+](=O)[O-])c3ccccc32)cc(C)c1O` [Example 65, 3,3-Bis-(4-hydroxy-3,5-dimethyl-phenyl)-1-(2-nitro-benzyl)-1,3-dihydro-indol-2-one], for which the Ki is not above 500 nM.

In turn, `Cc1cc(C2(c3cc(C)c(O)c(C)c3)C(=O)N(Cc3cccc(F)c3F)c3ccccc32)cc(C)c1O` [Example 66, 1-(2,3-Difluoro-benzyl)-3,3-bis-(4-hydroxy-3,5-dimethyl-phenyl)-1,3-dihydro-indol-2-one] displayed a Ki not above 500 nM.

Turning to `Cc1cc(C2(c3cc(C)c(O)c(C)c3)C(=O)N(Cc3ccc(OC(F)(F)F)cc3)c3ccccc32)cc(C)c1O` [Example 67, 3,3-Bis-(4-hydroxy-3,5-dimethyl-phenyl)-1-(4-trifluoromethoxy-benzyl)-1,3-dihydro-indol-2-one], the Ki is not above 500 nM.

`Cc1cc(C2(c3cc(C)c(O)c(C)c3)C(=O)N(Cc3ccc(C(F)(F)F)cc3C(F)(F)F)c3ccccc32)cc(C)c1O` [Example 68, 1-(2,4-Bis-trifluoromethyl-benzyl)-3,3-bis-(4-hydroxy-3,5-dimethyl-phenyl)-1,3-dihydro-indol-2-one] yielded a Ki not above 500 nM.

In the case of `Cc1cc(C2(c3cc(C)c(O)c(C)c3)C(=O)N(Cc3cccc(C)c3F)c3ccccc32)cc(C)c1O` [Example 70, 1-(2-Fluoro-3-methyl-benzyl)-3,3-bis-(4-hydroxy-3,5-dimethyl-phenyl)-1,3-dihydro-indol-2-one], the Ki is not above 500 nM.

`Cc1cc(C2(c3cc(C)c(O)c(C)c3)C(=O)N(Cc3ccc([N+](=O)[O-])o3)c3ccccc32)cc(C)c1O` [Example 73, 3,3-Bis-(4-hydroxy-3,5-dimethyl-phenyl)-1-(5-nitro-furan-2-ylmethyl)-1,3-dihydro-indol-2-one]: the Ki was not above 500 nM.

`Cc1cc(C2(c3cc(C)c(O)c(C)c3)C(=O)N(Cc3ccc(OCc4ccccc4)cc3)c3ccccc32)cc(C)c1O` [Example 74, 1-(4-Benzyloxy-benzyl)-3,3-bis-(4-hydroxy-3,5-dimethyl-phenyl)-1,3-dihydro-indol-2-one] registered a Ki not above 500 nM.

In the case of `Cc1cc(C2(c3cc(C)c(O)c(C)c3)C(=O)N(Cc3c(F)cccc3Cl)c3ccccc32)cc(C)c1O` [Example 76, 1-(2-Chloro-6-fluoro-benzyl)-3,3-bis-(4-hydroxy-3,5-dimethyl-phenyl)-1,3-dihydro-indol-2-one], the Ki was not above 500 nM.

In turn, `CCCCCN1C(=O)C(c2cc(C)c(O)c(C)c2)(c2cc(C)c(O)c(C)c2)c2ccccc21` [Example 77, 3,3-Bis-(4-hydroxy-3,5-dimethyl-phenyl)-1-pentyl-1,3-dihydro-indol-2-one] had a Ki not above 500 nM.

Regarding `Cc1cc(C2(c3cc(C)c(O)c(C)c3)C(=O)N(CC#N)c3ccccc32)cc(C)c1O` [Example 78, [3,3-Bis-(4-hydroxy-3,5-dimethyl-phenyl)-2-oxo-2,3-dihydro-indol-1-yl]-acetonitrile], the Ki is not above 500 nM.

In turn, `Cc1cc(C2(c3cc(C)c(O)c(C)c3)C(=O)N(Cc3ccccc3OC(F)F)c3ccccc32)cc(C)c1O` [Example 79, 1-(2-Difluoromethoxy-benzyl)-3,3-bis-(4-hydroxy-3,5-dimethyl-phenyl)-1,3-dihydro-indol-2-one] displayed a Ki not above 500 nM.

As for `CCOCCN1C(=O)C(c2cc(C)c(O)c(C)c2)(c2cc(C)c(O)c(C)c2)c2ccccc21` [Example 80, 1-(2-Ethoxy-ethyl)-3,3-bis-(4-hydroxy-3,5-dimethyl-phenyl)-1,3-dihydro-indol-2-one], the Ki is not above 500 nM.
